Reference: PMC10177447, “4-[(5-Methyl-1H-pyrazol-3-yl)amino]-2H-phenyl-1-phthalazinone Inhibits MCPyV T Antigen Expression in Merkel Cell Carcinoma Independent of Aurora Kinase A” (Cancers, 2023)

Target: GSK3b (Homo sapiens, UniProt P49841)
Test: commercial GSK3 kinase assay (Promega) with ADP-Glo luminescence readout, dose-response
Assay type: biochemical

Sequence of GSK3b (P49841 whole entry): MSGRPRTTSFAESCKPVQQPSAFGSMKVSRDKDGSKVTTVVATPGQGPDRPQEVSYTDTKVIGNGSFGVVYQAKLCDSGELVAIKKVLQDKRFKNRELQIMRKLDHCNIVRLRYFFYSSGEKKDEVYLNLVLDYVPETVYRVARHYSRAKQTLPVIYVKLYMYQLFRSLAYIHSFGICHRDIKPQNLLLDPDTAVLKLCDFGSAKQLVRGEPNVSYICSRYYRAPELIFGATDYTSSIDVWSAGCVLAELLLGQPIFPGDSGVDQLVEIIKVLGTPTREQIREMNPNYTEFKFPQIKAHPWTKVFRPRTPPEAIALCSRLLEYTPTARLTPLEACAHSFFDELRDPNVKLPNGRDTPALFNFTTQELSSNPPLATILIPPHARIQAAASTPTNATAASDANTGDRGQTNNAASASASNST

IC50: 29 nM
SMILES: Cc1cc(Nc2nn(-c3ccccc3)c(=O)c3ccccc23)n[nH]1 [PHT, 4-[(5-methyl-1H-pyrazol-3-yl)amino]-2H-phenyl-1-phthalazinone]
